In patent US5629322A, “Cyclic amidine analogs as inhibitors of nitric oxide synthase” (priority 1995, dated 1997):
Where a name gives a salt, the structure may show the parent alone. Read-outs that look alike come from different tables or passages of the source.

Columns and labels:
[1] = target: ecNOS (Homo sapiens, UniProt P29474); experiment: NOS activity assay, ecNOS (L-[3H]citrulline formation); format: biochemical
Procedure: (§1) Assay Protocol for NOS activity
(§2) NOS activity is measured as the formation of L-[2,3,4,5-^3 H]Citrullinefrom L-[2,3,4,5-^3 H]Arginine. The incubation buffer (100 μL) contained; 100 mM TES, pH 7.5, 5 μM FAD, 5 μM FMN, 10 μM BH4, 0.5 mM NADPH, 0.5 mM DTT, 0.5 mg/mL BSA, 2 mM CaCl2, 10 μg/mL calmodulin (bovine), 1 μM L-Arg, 0.2 μCi L-[2,3,4,5-^3 H]Arg, and the inhibitor in aqueous DMSO (max. 5%). The reaction is initiated by addition of enzyme. Incubations are performed at room temperature for 30 minutes and stopped by the addition of an equal volume of quenching buffer consisting of 200 mM sodium citrate, pH 2.2, 0.02% sodium azide. Reaction products are separated by passing through a cation exchange resin and quantitated as cpm by scintillation counting.

[2] = target: ncNOS (Homo sapiens, UniProt P29475); experiment: biochemical
Sequence of ncNOS (P29475 whole entry): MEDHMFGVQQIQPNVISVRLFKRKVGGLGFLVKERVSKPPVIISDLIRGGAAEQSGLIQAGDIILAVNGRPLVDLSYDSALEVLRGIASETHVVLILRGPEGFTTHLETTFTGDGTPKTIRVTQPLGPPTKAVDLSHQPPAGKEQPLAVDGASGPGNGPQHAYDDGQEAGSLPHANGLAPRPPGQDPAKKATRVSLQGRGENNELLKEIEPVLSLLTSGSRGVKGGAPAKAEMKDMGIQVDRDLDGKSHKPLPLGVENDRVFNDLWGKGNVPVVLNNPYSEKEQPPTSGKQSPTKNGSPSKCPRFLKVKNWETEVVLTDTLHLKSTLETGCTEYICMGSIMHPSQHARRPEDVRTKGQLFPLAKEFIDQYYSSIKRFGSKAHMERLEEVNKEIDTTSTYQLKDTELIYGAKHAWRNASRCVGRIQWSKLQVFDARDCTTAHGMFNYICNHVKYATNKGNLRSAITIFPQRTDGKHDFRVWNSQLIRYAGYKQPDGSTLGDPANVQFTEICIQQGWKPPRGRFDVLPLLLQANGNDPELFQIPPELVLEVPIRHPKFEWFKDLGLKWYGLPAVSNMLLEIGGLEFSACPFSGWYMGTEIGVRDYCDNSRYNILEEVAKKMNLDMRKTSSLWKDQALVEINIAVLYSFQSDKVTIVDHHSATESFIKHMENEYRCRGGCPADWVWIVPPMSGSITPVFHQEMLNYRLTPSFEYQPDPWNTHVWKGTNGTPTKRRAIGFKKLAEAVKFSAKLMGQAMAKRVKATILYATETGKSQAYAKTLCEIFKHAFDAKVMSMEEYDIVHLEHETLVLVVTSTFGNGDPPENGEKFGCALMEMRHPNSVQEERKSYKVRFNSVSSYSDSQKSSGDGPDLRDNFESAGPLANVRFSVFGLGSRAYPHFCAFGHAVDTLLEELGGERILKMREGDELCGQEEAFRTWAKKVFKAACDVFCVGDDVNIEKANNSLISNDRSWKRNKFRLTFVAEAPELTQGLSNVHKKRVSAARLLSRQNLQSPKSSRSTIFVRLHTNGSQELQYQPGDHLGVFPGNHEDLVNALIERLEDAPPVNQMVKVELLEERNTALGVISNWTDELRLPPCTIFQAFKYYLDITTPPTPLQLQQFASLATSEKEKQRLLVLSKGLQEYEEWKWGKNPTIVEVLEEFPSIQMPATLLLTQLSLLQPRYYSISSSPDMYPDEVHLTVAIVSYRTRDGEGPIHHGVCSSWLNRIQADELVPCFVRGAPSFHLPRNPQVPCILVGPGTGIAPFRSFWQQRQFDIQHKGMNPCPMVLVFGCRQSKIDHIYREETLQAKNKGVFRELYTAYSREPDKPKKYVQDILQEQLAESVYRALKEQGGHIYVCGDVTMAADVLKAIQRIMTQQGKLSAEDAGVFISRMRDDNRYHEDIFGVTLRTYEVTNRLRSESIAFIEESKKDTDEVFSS

[3] = target: iNOS (Homo sapiens, UniProt P35228); experiment: NOS activity assay, iNOS (L-[3H]citrulline formation); format: biochemical
Procedure: as §1, §2

Row | Structure (SMILES) | IC50 ([1]; Table 4, read-out: IC50 ecNOS) [µM] | IC50 ([2]; Table 4, read-out: IC50 ncNOS) [µM] | IC50 ([3]; Table 4, read-out: IC50 iNOS) [µM] | other results
1 | N=C(N)CCNC(=O)C1CCC(=N)N1 (centres unmarked) | > 50 | < 10 | ≤ 10 | 
2 | CC(=O)NCC1CNC(=N)CC1C (mixture of isomers) [Table 5: CH, H, CH3, CH2NHAc, H, H, H, cis/trans-5-Acetamidomethyl-2-imino-4-methyl-piperidine, acetic acid salt] |  |  |  | IC50 ([1]; Table 5, read-out: IC50 ecNOS): > 50 µM; IC50 ([2]; Table 5, read-out: IC50 ncNOS): ≤ 50 µM; IC50 ([3]; Table 5, read-out: IC50 iNOS): ≤ 50 µM
3 | COC(=O)C1CNC(=N)CC1C (mixture of isomers) [Table 5: CH, H, CH3, CO2CH3, H, H, H, cis/trans-2-Imino-4-methyl-piperidine-5-carboxylic acid, methyl ester, acetic acid salt] |  |  |  | IC50 ([1]; Table 5, read-out: IC50 ecNOS): > 50 µM; IC50 ([2]; Table 5, read-out: IC50 ncNOS): ≤ 50 µM; IC50 ([3]; Table 5, read-out: IC50 iNOS): ≤ 10 µM
4 | CC1CC(=N)NCC1C(=O)O (mixture of isomers) [Table 5: CH, H, CH3, CO2H, H, H, H, cis/trans-2-Imino-4-methyl-piperidine-5-carboxylic acid, acetic acid salt] |  |  |  | IC50 ([1]; Table 5, read-out: IC50 ecNOS): ≤ 50 µM; IC50 ([2]; Table 5, read-out: IC50 ncNOS): ≤ 10 µM; IC50 ([3]; Table 5, read-out: IC50 iNOS): ≤ 10 µM
5 | CC(=O)NC1CNC(=N)CC1C (mixture of isomers) [Table 5: CH, H, CH3, NHAc, H, H, H, cis/trans-5-Acetamido-2-imino-4-methyl-piperidine, acetic acid salt] |  |  |  | IC50 ([1]; Table 5, read-out: IC50 ecNOS): > 50 µM; IC50 ([2]; Table 5, read-out: IC50 ncNOS): > 50 µM; IC50 ([3]; Table 5, read-out: IC50 iNOS): ≤ 50 µM
6 | CC1CC(=N)NCC1C1CCCCC1 (mixture of isomers) [cis/trans-5-Cyclohexyl-2-imino-4-methyl-piperidine, acetic acid salt] |  |  |  | IC50 ([1]; Table 5, read-out: IC50 ecNOS): > 50 µM; IC50 ([2]; Table 5, read-out: IC50 ncNOS): > 50 µM; IC50 ([3]; Table 5, read-out: IC50 iNOS): > 50 µM
7 | NC1=N[C@H]2CCCC[C@H]2CC1 (relative stereo) [Table 5: CH2, H, H, cis-(CH2)4, H, H, cis-Decahydro-2-iminoquinoline hydrochloride] |  |  |  | IC50 ([1]; Table 5, read-out: IC50 ecNOS): ≤ 50 µM; IC50 ([2]; Table 5, read-out: IC50 ncNOS): ≤ 1 µM; IC50 ([3]; Table 5, read-out: IC50 iNOS): ≤ 1 µM
8 | N=C1CC[C@@H]2CCCC[C@H]2N1 (relative stereo) [Table 5: CH2, H, H, trans-(CH2)4, H, H, trans-Decahydro-2-iminoquinoline hydrochloride] |  |  |  | IC50 ([1]; Table 5, read-out: IC50 ecNOS): ≤ 10 µM; IC50 ([2]; Table 5, read-out: IC50 ncNOS): ≤ 1 µM; IC50 ([3]; Table 5, read-out: IC50 iNOS): ≤ 1 µM
9 | CC[C@@H]1C(=N)NCC[C@@H]1C (relative stereo) [Table 5: CH, C2H5, CH3, H, H, H, H, cis-3-Ethyl-2-imino-4-methyl-piperidine, hydrochloride] |  |  |  | IC50 ([1]; Table 5, read-out: IC50 ecNOS): ≤ 50 µM; IC50 ([2]; Table 5, read-out: IC50 ncNOS): ≤ 10 µM; IC50 ([3]; Table 5, read-out: IC50 iNOS): ≤ 50 µM
10 | C[C@@H]1CC(=N)N[C@H](C)C1 (relative stereo) [Table 5: CH, H, CH3, H, CH3, H, H, cis-4,6-Dimethyl-2-imino-piperidine, acetic acid salt] |  |  |  | IC50 [1]: ≤ 1 µM; IC50 [2]: ≤ 1 µM; IC50 [3]: ≤ 1 µM
11 | CCC[C@@H]1C(=N)NCC[C@@H]1C (relative stereo) [Table 5: CH, n-C3H7, CH3, H, H, H, H, cis-2-Imino-4-methyl-3-n-propyl-piperidine, hydrochloride] |  |  |  | IC50 ([1]; Table 5, read-out: IC50 ecNOS): > 50 µM; IC50 ([2]; Table 5, read-out: IC50 ncNOS): ≤ 50 µM; IC50 ([3]; Table 5, read-out: IC50 iNOS): ≤ 50 µM
12 | N=C1CN[C@@H]2CCCC[C@@H]2N1 (relative stereo) [Table 5: N, H, H, cis-(CH2)4, H, H, 2-Imino-decahydro-cis-quinoxaline] |  |  |  | IC50 [1]: > 50 µM; IC50 ([2]; Table 5, read-out: IC50 ncNOS): > 50 µM; IC50 [3]: ≤ 10 µM
13 | CC1CC(N)=NC1C (single isomer, unassigned) [Table 4: H, CH3, CH3(A), H, H] | ≤ 1 | ≤ 1 | ≤ 1 | 
14 | CC1CC(N)=NC1C (single isomer, unassigned) [Table 4: H, CH3, CH3(B), H, H] |  | ≤ 1 | ≤ 1 | 
15 | CCC1CN=C(N)C1C (centres unmarked) [Table 4: CH3, C2H5, H, H, H, 2-Imino-4-ethyl-3-methylpyrrolidine hydrochloride] | > 50 | ≤ 10 | ≤ 1 | 
16 | CC1CN=C(N)C1C (centres unmarked) [Table 4: CH3, CH3, H, H, H, 2-Imino-3,4-dimethylpyrrolidine hydrochloride] | ≤ 10 | ≤ 1 | ≤ 10 | 
17 | CC1CCN=C1N (centres unmarked) [Table 4: CH3, H, H, H, H, 2-Imino-3-methylpyrrolidine hydrochloride] | ≤ 10 |  | ≤ 10 | IC50 [2]: ≤ 1 µM
18 | CCC1CC(N)=NC1C (centres unmarked) [Table 4: H, C2H5, CH3, H, H, 2-Imino-4-ethyl-5-methylpyrrolidine hydrochloride] | ≤ 10 | ≤ 1 | ≤ 1 | 
19 | CCC1CN=C(N)C1 (centres unmarked) [Table 4: H, C2H5, H, H, H, 2-Imino-4-ethylpyrrolidine hydrochloride] | ≤ 50 | ≤ 10 | ≤ 1 | 
20 | CCC1N=C(N)CC1C (centres unmarked) [Table 4: H, CH3, C2H5, H, H, 2-Imino-5-ethyl-4-methylpyrrolidine hydrochloride] | ≤ 1 |  | ≤ 1 | IC50 [2]: ≤ 1 µM
21 | CC1CC(N)=NC1C (centres unmarked) [Table 4: H, CH3, CH3, H, H, 2-Imino-4,5-dimethylpyrrolidine hydrochloride] | < 1 | < 1 | ≤ 1 | 

Row | Structure (SMILES) | IC50 ([1]; Table 4, read-out: IC50 ecNOS) [µM] | IC50 ([2]; Table 4, read-out: IC50 ncNOS) [µM] | IC50 ([3]; Table 4, read-out: IC50 iNOS) [µM] | other results
22 | CC1CN=C(N)C1 (centres unmarked) [Table 4: H, CH3, H, H, H, 2-Imino-4-methylpyrrolidine hydrochloride] |  |  |  | IC50 [1]: ≤ 10 µM; IC50 [2]: ≤ 1 µM; IC50 [3]: ≤ 10 µM
23 | CCCC1N=C(N)CC1C (centres unmarked) [Table 4: H, CH3, n-C3H7, H, H, 2-Imino-4-methyl-5-propylpyrrolidine hydrochloride] | ≤ 50 | ≤ 10 | ≤ 10 | 
24 | N=C1CC[C@@H]2CCCN12 [Table 4: H, H, (CH2)3, H, 5-(S)-2-Imino-1-aza-bicyclo(3.3.0)octane] | ≤ 50 | ≤ 10 | > 50 | 
25 | CC1(C)CCC(=N)N1 [Table 4: H, H, (CH3)2, H, H, 2-Imino-5,5-dimethylpyrrolidine hydrochloride] | ≤ 50 | ≤ 10 | ≤ 10 | 
26 | CC(=O)OC[C@H]1CCC(=N)N1 [Table 4: H, H, (R)-CH2OAc, H, H, 2-Imino-5-(R)-acetyloxymethylpyrrolidine hydrochloride] | > 50 | > 50 | > 50 | 
27 | N=C1CC[C@H](CO)N1 [Table 4: H, H, (R)-CH2OH, H, H, 2-Imino-5-(R)-hydroxymethylpyrrolidine hydrochloride] | ≤ 50 | ≤ 50 | ≤ 50 | 
28 | CC(=O)OC[C@@H]1CCC(=N)N1 [Table 4: H, H, (S)-CH2OAc, H, H, 2-Imino-5-(S)-acetyloxymethylpyrrolidine hydrochloride] | > 50 | ≤ 10 | ≤ 50 | 
29 | N=C1CC[C@@H](CO)N1 [Table 4: H, H, (S)-CH2OH, H, H, 2-Imino-5-(S)-hydroxymethylpyrrolidine hydrochloride] | > 50 | ≤ 50 | ≤ 10 | 
30 | CCC1CCC(=N)N1 (centres unmarked) [Table 4: H, H, C2H5, H, H] | ≤ 10 | ≤ 10 | ≤ 50 | 
31 | CC1CCC(N)=N1 (centres unmarked) [Table 4: H, H, CH3, H, H, 2-Imino-5-methylpyrrolidine hydrochloride] | ≤ 10 |  |  | IC50 [2]: ≤ 10 µM; IC50 [3]: ≤ 10 µM
32 | O=C(O)C1CCC(=NC2NCCS2)N1 (centres unmarked) [Table 4: H, H, CO2H, H, 2-thiazolidinyl] |  |  | ≤ 50 | 
33 | Oc1ccc(CCNC2=NCCC2)cc1O [Table 4: H, H, H, H, C2 H4 Ph-3,4-(OH)2, 1-Aza-2-((3,4-dihydroxyphenyl)ethyl)amino-1-cyclopentene hydrochloride] | > 50 | > 50 | > 50 | 
34 | NC1=NCCC1 [Table 4: H, H, H, H, H, 1-Aza-2-imino-cyclopentane hydrochloride] |  |  | ≤ 10 | IC50 [1]: ≤ 10 µM; IC50 [2]: ≤ 10 µM
35 | CC(C)C1CN=C(N)C1 (centres unmarked) [Table 4: H, i-C3H7, H, H, H, 2-Imino-4-(2-methyl-ethyl)pyrrolidine hydrochloride] | > 50 | ≤ 50 | ≤ 10 | 
36 | C[C@@H]1CCC(=N)NC1 [Table 5: CH2, H, H, (R)CH3, H, H, H, 5(R)-Methyl-2-iminopiperidine hydrochloride] |  |  |  | IC50 [1]: ≤ 10 µM; IC50 [3]: ≤ 1 µM
37 | C[C@H]1CCC(=N)NC1 [Table 5: CH2, H, H, (S)CH3, H, H, H, 5(S)-Methyl-2-iminopiperidine hydrochloride] |  |  |  | IC50 [1]: ≤ 10 µM; IC50 [3]: ≤ 10 µM
38 | CC1CCC(N)=NC1 (centres unmarked) [Table 5: CH2, H, H, CH3, H, H, H, 2-Imino-5-methylpiperidine hydrochloride] |  |  |  | IC50 [1]: ≤ 10 µM; IC50 [3]: ≤ 1 µM
39 | N=C1CCCCN1 [Table 5: CH2, H, H, H, H, H, H, 2-Iminopiperidine hydrochloride] |  |  |  | IC50 [1]: ≤ 1 µM; IC50 [3]: ≤ 1 µM
40 | C[C@@H]1CCNC(=N)C1 [Table 5: CH, H, (R)CH3, H, H, H, H, 4(R)-Methyl-2-iminopiperidine hydrochloride] |  |  |  | IC50 [3]: ≤ 1 µM
41 | C[C@H]1CCNC(=N)C1 [Table 5: CH, H, (S)CH3, H, H, H, H, 4(S)-Methyl-2-iminopiperidine hydrochloride] |  |  |  | IC50 [3]: ≤ 1 µM
42 | CC1CCN=C(N)C1 (centres unmarked) [Table 5: CH, H, CH3, H, H, H, H, 2-Imino-4-methylpiperidine hydrochloride] |  |  |  | IC50 [3]: ≤ 1 µM
